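Five compound concentrations were applied to cells in 96-well plates for 48 hours; endpoints were derived by simple linear interpolation of the resulting dose-response curve. Abbreviation: GI50, concentration required for 50% inhibition of growth.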 Activity calls are given as the source filed them. No stated cut-off is given here; in the data, active = GI50 up to about 1.1 µM and inactive = higher.
What was measured:
Assay in all cases: NCI anticancer screen, dose series, 48 h
HOP-62 = tested on: HOP-62
HL-60 = tested on: HL-60
A498 = tested on: A498
CCRF-CEM = tested on: CCRF-CEM
NCI-H226 = tested on: NCI-H226
SN12C = tested on: SN12C
DMS-114 = tested on: DMS-114
LOX IMVI = tested on: LOX IMVI
NCI-H23 = tested on: NCI-H23
NCI-H522 = tested on: NCI-H522
UO-31 = tested on: UO-31
OVCAR-4 = tested on: OVCAR-4
CAKI-1 = tested on: CAKI-1
UACC-62 = tested on: UACC-62
UACC-257 = tested on: UACC-257
SK-OV-3 = tested on: SK-OV-3
DLD-1 = tested on: DLD-1
OVCAR-5 = tested on: OVCAR-5
HOP-18 = tested on: HOP-18
U-251 = tested on: U-251
EKVX = tested on: EKVX
MCF7 = tested on: MCF7
HOP-92 = tested on: HOP-92
MOLT-4 = tested on: MOLT-4
HCC 2998 = tested on: HCC 2998
SNB-78 = tested on: SNB-78
LXFL 529 = tested on: LXFL 529
SF-539 = tested on: SF-539
K562 = tested on: K562
SK-MEL-5 = tested on: SK-MEL-5
NCI/ADR-RES = tested on: NCI/ADR-RES
OVCAR-8 = tested on: OVCAR-8
KM12 = tested on: KM12
M19-MEL = tested on: M19-MEL
A549 = tested on: A549
DMS-273 = tested on: DMS-273
TK-10 = tested on: TK-10
ACHN = tested on: ACHN
SK-MEL-2 = tested on: SK-MEL-2
OVCAR-3 = tested on: OVCAR-3
HT-29 = tested on: HT-29
786-0 = tested on: 786-0
SNB-19 = tested on: SNB-19
SF-295 = tested on: SF-295
IGROV-1 = tested on: IGROV-1
RPMI-8226 = tested on: RPMI-8226
RXF 631 = tested on: RXF 631
SK-MEL-28 = tested on: SK-MEL-28
KM-20L2 = tested on: KM-20L2
SF-268 = tested on: SF-268
COLO 205 = tested on: COLO 205
NCI-H460 = tested on: NCI-H460
RXF 393 = tested on: RXF 393
HCT-116 = tested on: HCT-116
HCT-15 = tested on: HCT-15
SW-620 = tested on: SW-620
SNB-75 = tested on: SNB-75
Malme-3M = tested on: Malme-3M
M14 = tested on: M14
SR = tested on: SR

Measured: GI50

CCOC(=O)COc1ccccc1/C=C1\CCC(CN(C)C)C1=O (stereo not drawn)
inactive: HOP-62 20.6 µM | A498 17.2 µM | NCI-H226 17.5 µM | SN12C 5.96 µM | DMS-114 10.3 µM | LOX IMVI 2.22 µM | NCI-H23 8.41 µM | NCI-H522 2.72 µM | UO-31 16.3 µM | OVCAR-4 16.5 µM | CAKI-1 3.02 µM | UACC-62 6.05 µM | UACC-257 5.66 µM | SK-OV-3 17.5 µM | DLD-1 3.99 µM | OVCAR-5 17.9 µM | HOP-18 23.2 µM | U-251 8 µM | EKVX 13.8 µM | MCF7 2.57 µM | HOP-92 10.9 µM | MOLT-4 2.11 µM | HCC 2998 2.46 µM | SNB-78 21.2 µM | LXFL 529 2.45 µM | SF-539 11.9 µM | K562 1.49 µM | SK-MEL-5 10.4 µM | NCI/ADR-RES 3.48 µM | OVCAR-8 4.2 µM | KM12 3.71 µM | M19-MEL 3.18 µM | A549 21.5 µM | DMS-273 2.91 µM | TK-10 12.9 µM | ACHN 13.9 µM | SK-MEL-2 10.6 µM | OVCAR-3 7.82 µM | HT-29 5.86 µM | 786-0 2.94 µM | SNB-19 9.2 µM | SF-295 16.1 µM | IGROV-1 13.3 µM | RXF 631 17.9 µM | SK-MEL-28 2.62 µM | KM-20L2 11.6 µM | SF-268 5.45 µM | COLO 205 3.9 µM | NCI-H460 10.8 µM | RXF 393 2.93 µM | HCT-116 3.4 µM | SW-620 2.55 µM | SNB-75 15.9 µM | Malme-3M 5.19 µM | M14 8.71 µM
active: HL-60 0.607 µM | CCRF-CEM 1.1 µM | RPMI-8226 0.902 µM
3.24 µM: HCT-15

COc1ccc2cccc(C(=O)c3ccc(C)c4c3CCC4)c2c1
19 µM: HCT-15
inactive: HOP-62 24.9 µM | HL-60 14.6 µM | A498 34.1 µM | CCRF-CEM 26.2 µM | NCI-H226 52.4 µM | SN12C 71.9 µM | DMS-114 32.4 µM | LOX IMVI 19.5 µM | NCI-H23 34.1 µM | NCI-H522 22.5 µM | UO-31 30.2 µM | OVCAR-4 85.5 µM | CAKI-1 31.7 µM | UACC-62 25.4 µM | UACC-257 30.1 µM | SK-OV-3 64.3 µM | DLD-1 21.5 µM | OVCAR-5 34.3 µM | HOP-18 33.3 µM | U-251 53.7 µM | EKVX 51.2 µM | MOLT-4 27.6 µM | HCC 2998 19.6 µM | SR 23.6 µM | LXFL 529 29.6 µM | K562 30.8 µM | SK-MEL-5 19.5 µM | OVCAR-8 43.2 µM | KM12 26.1 µM | M19-MEL 37.8 µM | A549 49.9 µM | DMS-273 29.1 µM | TK-10 32.3 µM | ACHN 56 µM | SK-MEL-2 34.6 µM | OVCAR-3 35.2 µM | HT-29 33 µM | 786-0 24.8 µM | SNB-19 > 100 µM | SF-295 53.6 µM | IGROV-1 24.6 µM | RXF 631 23 µM | SK-MEL-28 > 100 µM | KM-20L2 35.9 µM | SF-268 > 100 µM | COLO 205 29 µM | NCI-H460 20.3 µM | RXF 393 41.4 µM | HCT-116 37.7 µM | SW-620 41.8 µM | SNB-75 > 100 µM | Malme-3M 29.2 µM | M14 21.4 µM
